Data: patent publication US20100184596A1, “METHOD FOR THE CONTROL OF WEEDS IN TURF” (SYNGENTA CROP PROTECTION, INC., priority 2007, published 2010)

Columns and labels:
Assay type in all cases: in vivo
[1] = tested on: Hydrocotyle sp. (dollarweed); assay: Weed control via post emergence spray, in St. Augustinegrass v. Floratam (Table B5.3)
Description: The weed control efficacy of the compound of formula I was tested. The compound was applied via post emergence spray to a range of weeds, at various rates and spray treatment treatment regimes. Percentage weed control assessments were taken at various timepoints.

[2] = tested on: St. Augustinegrass v. Delmar; assay: Phytotoxicity via granule application (Table B3.1)
Zoysiagrass v. Meyer = assay: Phytotoxicity via post emergence spray application (Table B2.2)
Description: (§1) The phytotoxicity of the compound of formula I to turfgrass species was tested. The compound was applied via post emergence spray to a range of warm and cool season turfgrass species at various rates and spray treatment treatment regimes. Percentage phytotoxicity assessments were taken at various timepoints.

Bermudagrass = assay: Phytotoxicity via post emergence spray application (Table B2.5); details: 1 appl
Description: as §1

COCCOCc1nc(C(F)(F)F)ccc1C(=O)C1=C(O)C2CCC(C2)C1=O (stereo not shown) [Formula I, 4-Hydroxy-3-[2-(2-methoxyethoxymethyl)-6-trifluoromethylpyridine-3-carbonyl]-bicyclo[3.2.1]oct-3-en-2-one]
% control ([1]; 1 appl, 140 g ai/ha, 5 DAT): 10.00% | % control ([1]; 1 appl, 140 g ai/ha, 13 DAT): 60.00% | % control ([1]; 1 appl, 140 g ai/ha, 21 DAT): 50.00% | % control ([1]; 1 appl, 280 g ai/ha, 5 DAT): 15.00% | % control ([1]; 1 appl, 280 g ai/ha, 13 DAT): 57.50% | % control ([1]; 1 appl, 280 g ai/ha, 21 DAT): 60.00% | % control ([1]; 2 appl, 140 g ai/ha, 5 DAT): 15.00% | % control ([1]; 2 appl, 140 g ai/ha, 13 DAT): 55.00% | % control ([1]; 2 appl, 140 g ai/ha, 21 DAT): 52.50% | % control ([1]; 2 appl, 280 g ai/ha, 5 DAT): 20.00% | % control ([1]; 2 appl, 280 g ai/ha, 13 DAT): 65.00% | % control ([1]; 2 appl, 280 g ai/ha, 21 DAT): 62.50% | % phytotoxicity ([2]; Granule A (inert), 112 g ai/ha, 11 DAT): 1.30% | % phytotoxicity ([2]; Granule A (inert), 112 g ai/ha, 15 DAT): 0.70% | % phytotoxicity ([2]; Granule A (inert), 112 g ai/ha, 28 DAT): 0.00% | % phytotoxicity ([2]; Granule A (inert), 280 g ai/ha, 20 DAT): 0.00% | % phytotoxicity ([2]; Granule A (inert), 280 g ai/ha, 28 DAT): 0.00% | % phytotoxicity ([2]; Granule B (fertiliser), 112 g ai/ha, 20 DAT): 1.30% | % phytotoxicity ([2]; Granule B (fertiliser), 112 g ai/ha, 28 DAT): 0.00% | % phytotoxicity ([2]; Granule B (fertiliser), 280 g ai/ha, 7 DAT): 36.70% | % phytotoxicity ([2]; Granule B (fertiliser), 280 g ai/ha, 15 DAT): 11.70% | % phytotoxicity ([2]; Granule B (fertiliser), 280 g ai/ha, 20 DAT): 5.00% | % phytotoxicity ([2]; Granule B (fertiliser), 280 g ai/ha, 28 DAT): 1.70% | % phytotoxicity ([2]; Spray, 112 g ai/ha, 7 DAT): 36.70% | % phytotoxicity ([2]; Spray, 112 g ai/ha, 11 DAT): 20.00% | % phytotoxicity ([2]; Spray, 112 g ai/ha, 15 DAT): 9.30% | % phytotoxicity ([2]; Spray, 112 g ai/ha, 20 DAT): 4.00% | % phytotoxicity ([2]; Spray, 112 g ai/ha, 28 DAT): 0.00% | % phytotoxicity ([2]; Spray, 280 g ai/ha, 7 DAT): 60.00% | % phytotoxicity ([2]; Spray, 280 g ai/ha, 11 DAT): 43.30% | % phytotoxicity ([2]; Spray, 280 g ai/ha, 15 DAT): 20.00% | % phytotoxicity ([2]; Spray, 280 g ai/ha, 20 DAT): 10.00% | % phytotoxicity ([2]; Spray, 280 g ai/ha, 28 DAT): 3.30% | % phytotoxicity (Zoysiagrass v. Meyer; 1 appl, 140 g ai/ha, 8 DAT): 42.50% | % phytotoxicity (Zoysiagrass v. Meyer; 1 appl, 140 g ai/ha, 14 DAT): 51.25% | % phytotoxicity (Zoysiagrass v. Meyer; 1 appl, 140 g ai/ha, 29 DAT): 41.25% | % phytotoxicity (Zoysiagrass v. Meyer; 1 appl, 140 g ai/ha, 35 DAT): 25.00% | % phytotoxicity (Zoysiagrass v. Meyer; 1 appl, 140 g ai/ha, 43 DAT): 7.50% | % phytotoxicity (Zoysiagrass v. Meyer; 1 appl, 140 g ai/ha, 51 DAT): 5.00% | % phytotoxicity (Zoysiagrass v. Meyer; 1 appl, 140 g ai/ha, 60 DAT): 0.00% | % phytotoxicity (Zoysiagrass v. Meyer; 1 appl, 280 g ai/ha, 8 DAT): 45.00% | % phytotoxicity (Zoysiagrass v. Meyer; 1 appl, 280 g ai/ha, 14 DAT): 57.50% | % phytotoxicity (Zoysiagrass v. Meyer; 1 appl, 280 g ai/ha, 29 DAT): 61.25% | % phytotoxicity (Zoysiagrass v. Meyer; 1 appl, 280 g ai/ha, 35 DAT): 28.75% | % phytotoxicity (Zoysiagrass v. Meyer; 1 appl, 280 g ai/ha, 43 DAT): 8.75% | % phytotoxicity (Zoysiagrass v. Meyer; 1 appl, 280 g ai/ha, 51 DAT): 3.75% | % phytotoxicity (Zoysiagrass v. Meyer; 1 appl, 280 g ai/ha, 60 DAT): 0.00% | % phytotoxicity (Zoysiagrass v. Meyer; 2 appl, 140 g ai/ha, 8 DAT): 33.75% | % phytotoxicity (Zoysiagrass v. Meyer; 2 appl, 140 g ai/ha, 14 DAT): 47.50% | % phytotoxicity (Zoysiagrass v. Meyer; 2 appl, 140 g ai/ha, 29 DAT): 17.50% | % phytotoxicity (Zoysiagrass v. Meyer; 2 appl, 140 g ai/ha, 35 DAT): 43.75% | % phytotoxicity (Zoysiagrass v. Meyer; 2 appl, 140 g ai/ha, 43 DAT): 27.50% | % phytotoxicity (Zoysiagrass v. Meyer; 2 appl, 140 g ai/ha, 51 DAT): 8.75% | % phytotoxicity (Zoysiagrass v. Meyer; 2 appl, 140 g ai/ha, 60 DAT): 0.00% | % phytotoxicity (Zoysiagrass v. Meyer; 2 appl, 280 g ai/ha, 8 DAT): 38.75% | % phytotoxicity (Zoysiagrass v. Meyer; 2 appl, 280 g ai/ha, 14 DAT): 57.50% | % phytotoxicity (Zoysiagrass v. Meyer; 2 appl, 280 g ai/ha, 29 DAT): 52.50% | % phytotoxicity (Zoysiagrass v. Meyer; 2 appl, 280 g ai/ha, 35 DAT): 47.50% | % phytotoxicity (Zoysiagrass v. Meyer; 2 appl, 280 g ai/ha, 43 DAT): 28.75% | % phytotoxicity (Zoysiagrass v. Meyer; 2 appl, 280 g ai/ha, 51 DAT): 12.50% | % phytotoxicity (Zoysiagrass v. Meyer; 2 appl, 280 g ai/ha, 60 DAT): 0.00% | % phytotoxicity (Bermudagrass; 140 g ai/ha, 7 DAT): 38.75% | % phytotoxicity (Bermudagrass; 140 g ai/ha, 14 DAT): 18.75% | % phytotoxicity (Bermudagrass; 140 g ai/ha, 21 DAT): 15.00% | % phytotoxicity (Bermudagrass; 140 g ai/ha, 32 DAT): 13.75% | % phytotoxicity (Bermudagrass; 140 g ai/ha, 35 DAT): 13.75% | % phytotoxicity (Bermudagrass; 140 g ai/ha, 42 DAT): 7.50% | % phytotoxicity (Bermudagrass; 140 g ai/ha, 49 DAT): 6.25% | % phytotoxicity (Bermudagrass; 280 g ai/ha, 7 DAT): 38.75% | % phytotoxicity (Bermudagrass; 280 g ai/ha, 14 DAT): 28.75% | % phytotoxicity (Bermudagrass; 280 g ai/ha, 21 DAT): 12.50% | % phytotoxicity (Bermudagrass; 280 g ai/ha, 32 DAT): 15.00% | % phytotoxicity (Bermudagrass; 280 g ai/ha, 35 DAT): 15.00%
